How the values were obtained:
3NP-lesioned mice = conditions: cited from earlier work
[1] = Cysteamine recovery assay (thiol trapping)
Method: cysteamine to form polar and not extractable adducts.
(§1) Determination of ROS: N2a cells were seeded at 25x 10^3 cells/ml in 96-well plates and incubated with 0.25 ȝM 5-(and-6 )-chloro meth yl-2ƍ,7ƍ-dichlorodihydrofluorescein diacetate acet yl ester (C M-H 2 DCFDA) for 20 minutes at 37°C. Then, the cells were treated with either VCE-003 or VCE-003.2 for 2 hours. Cells exposed to pro-oxidant tert-Butyl h ydroperoxide (TBHP) were used as positive control. H 2 DCFDA oxidation was detected using an Incuc yteTM Live-Cell Imaging S ystem (Hertfordshire, UK).
(§2) Nrf2 transcriptional assay: To study Nrf2 transcriptional activity N2a cells were seeded (105/ml) in 24-well plates and transientl y transfected with the plasmid NQO1-ARE-Luc using Roti©-Fect following the manufacturer’s instructions (Carl Roth, Karlsruhe, German y). After 24 hours, cells were incubated wi th the compounds at the concentrations indicated during 6 hours and the luciferase activit y was determined using an Autolumat LB 953 (EG&G Berthold, Bad Wildbad, Germany). Protein content was determined b y the Bradford method to calculate R LU/Pg of protein and the results were expressed as a fold induction over untreated cells.

Nrf2 pathway = experiment: Nrf2 transcriptional assay (NQO1-ARE-Luc) in N2a cells; format: cell-based; conditions: 6 hours
Method: as §2
Supplementary Figure S1. Non-elect rophilic activity for VCE-003.2. (a) Reactive ox ygen species production.
In cu c yt e TM Liv e-Cell Im agin g S ystem. Results are ex pressed as m ean of t otal integrated intensity (ROS positive cells) ± S.D. (b) Effect on Nrf2 transcriptional activity. N2a cells were transientl y trans fected with the NQO1-ARE-Luc plasmid and incubated with the indicated compound concentrations for 6 hours prior to luciferase activit y determination.
Results are expressed as the fold induction ± S.D. relative to untreated control. All the results are representative of at least three independent experiments. Statistics: **p<0.01 VCE-003 treatment vers us Vehicle treated cells.

N2a cells [2] = experiment: Reactive oxygen species production in N2a cells (CM-H2DCFDA); format: cell-based; conditions: 2 hours
Method: as §1
Supplementary Figure S1. Non-elect rophilic activity for VCE-003.2. (a) Reactive ox ygen species production. N2a cells were stained with CM-H2DCFDA and treated with VCE-003 or VCE-003.2 for 2 hours. Then, reactive ox ygen sp ecies were measured b y In cu c yt e TM Liv e-Cell Im agin g S ystem. Results are ex pressed as m ean of t otal integrated intensity (ROS positive cells) ± S.D. (b) Effect on Nrf2 transcriptional activity.
VCE-003 treatment vers us Vehicle treated cells.

N2a cells [3] = experiment: N2a cytotoxicity assay (MTT); format: cell-based; conditions: 24 hours
Method: Figure 1 VCE-003.2 synthesis and characterization. (a) Schematic representation of VCE-003.2 synthesis. […] The indicated concentrations were tested and results were plotted to obtain the polynomial trend on a logarithmic range. IC50 values are indicated within the graph. […]. HEK293 cells were co-transfected with GAL4-PPARγ and GAL4-luc and incubated with the indicated compound concentrations for 6 hours prior to luciferase activity determination. Results are expressed as the fold induction ± S.D. relative to untreated control. (d) N2a cells were incubated with VCE-003 and VCE-003.2 as indicated during 24 hours and cell viability was determined by the MTT assay. Results are expressed as percentage of cell viability against the negative control (100%). (e) N2a cells were pre-treated with the compounds for 30 min and incubated during 24 h with 15 mM glutamate and cell viability determined by MTT. Results are expressed as percentage of cell viability against the negative control (100%). All experiments are shown as mean ± S.D. from at least three independent experiments. Statistics: *^,#,†p < 0.05, **^,##,††p < 0.01 and ***^,###p < 0.001. […] | Briefly, N2a cells were seeded at a density of 1 × 10^3 cells/well in 96-well plates, treated with increasing concentrations of VCE-003 or VCE-003.2 for 24 hours and cell viability was measured by the MTT method. […]. […]

Keap1/Nrf2 pathway = Keap1/Nrf2 pathway activation (unpublished results)
[4] = system: 3NP-lesioned C57BL/6 mice; experiment: 3-nitropropionic acid (3NP) model of Huntington's disease; format: in vivo; conditions: for COX-2 (2expΔΔct) / IL-6 (2expΔΔct) / TNF-α (2expΔΔct): striatum mRNA, mean ± SEM n=6; for COX-2 (2expΔΔct) / IL-6 (2expΔΔct) / TNF-α (2expΔΔct) / % GSH / % SOD activity / %Catalase activity: substance alone; for % GSH / % SOD activity / %Catalase activity: striatum, % of vehicle-treated control
Method: Figure 7 VCE-003.2 is neuroprotective in 3NP-intoxicated mice. (a) Behavioural score was determined 12 hours after 3NP intoxication. Mice were treated with VCE-003.2 (20 mg/Kg) alone or combined with T0070907 (5 mg/kg) as indicated. Animals were also treated separately with either VCE-003.2 or T0070907 alone. Hind limb clasping, general locomotor activity, hind limb dystonia and kyphosis were rated from 0 to 2 based on severity (score 0 indicates normal function and 2 indicates the most severe affected function). Values are expressed as means ± SEM (n = 6). (b) Representative images of Nissl staining performed on coronal striatal brain sections from the same mice groups. Photomicrographs of NeuN (Bar size, 50 μm) Iba-1 and glial fibrillary acidic protein (GFAP) immunostained sections through the different group of mice are also shown. (c) Quantification of the different markers was performed with Image J software. Total average number of neurons (NeuN^+), microglia (Iba1^+) and astrocytes (GFAP^+) is shown. Values are expressed as means ± SEM (n = 6). *p < 0.05, **p < 0.01, ***p < 0.001 vs. Vehicle; ^#p < 0.05, ^##p < 0.01, ^###p < 0.001 vs. 3NP; †p < 0.05, ^††p < 0.01, ^†††p < 0.001 vs. the 3NP + VCE-003.2 group.
Mice were housed under standard conditions (12-h light/dark cycle) in groups with access to food and water ad libitum. All experiments were performed in accordance with European Union guideline and approved by the Animal Research Ethic Committee of Córdoba University (2014PI/017) (3NP model) and by the Animal Research Ethic Committee of Complutense University (CEA-UCM 73/2012) (QA model). Procedures were designed to minimize the number of animals used and their suffering. Excitotoxicity was induced by intrastriatal quinolinic acid (QA) administration (100 nmol in 1 μL PBS solution, unilaterally) as previously described[41] at the following coordinates: +0.6 posterior to bregma, +1.85 medio-lateral and -2.7 dorso-ventral to dura, in 12-week-old CD1 male mice (Harlan Ibérica, Barcelona, Spain). Pharmacological manipulation with VCE-003.2 (10 mg/kg body weight) was performed i.p. daily in 2% Tween 20 and 3% DMSO in saline buffer until sacrifice. Control animals received the corresponding vehicle injections. Motor function was assessed by RotaRod analysis conducted with acceleration from 4 to 40 rpm over a period of 570 s in an LE8200 device (Harvard Apparatus, Barcelona, Spain). […] 3NP-treated animals and their respective non-lesioned controls (injected with PBS) were used for pharmacological studies with VCE-003.2. Treatments consisted of 4 i.p. injections every 24 h with 20 mg/kg VCE-003.2 or vehicle (4% DMSO plus 6,2% Tween 20 in saline buffer), with the first and the last injections 30 min before the first and the last injections of 3NP, respectively. In some experiments, mice received a combination of VCE-003.2 and the PPARγ antagonist T0070907 (5 mg/kg) injected 15 minutes before VCE-003.2. In 3NP-lesioned mice, motor activity, hindlimb clasping, dystonia, and truncal dystonia were evaluated following previously described procedures. All behavioural tests were conducted prior to drug injections to avoid acute effects of the compounds under investigation and all animals were euthanized 12 h after the last injection of 3NP and their brains removed. The right hemispheres were used to dissect the striatum which was frozen in RNAlater (Sigma-Aldrich) and stored at −80 °C for biochemical analyses. The left hemispheres were fixed in fresh 4% paraformaldehyde (in 0.1 M PBS) for 48 h at 4 °C and embedded in paraffin wax for staining and immunohistochemical analysis. In all experiments, at least 6 animals were used per experimental group.
Free floating coronal brain slices ([…]) were processed as previously described. […]

| SMILES | behavioural score, substance alone ([4]; mice given the substance alone) | COX-2 (2expΔΔct) [4] | IL-6 (2expΔΔct) [4] | TNF-α (2expΔΔct) [4] | % GSH [4] [%] | % SOD activity [4] | %Catalase activity [4] | other results |
| --- | --- | --- | --- | --- | --- | --- | --- | --- |
| CCCCCc1cc(O)c(C/C=C(\C)CCC=C(C)C)c(O)c1 [CBG, cannabigerol] |  |  |  |  |  |  |  | levels of GSH in the brain (3NP-lesioned mice): restores the levels of GSH in the brain of 3NP-lesioned mice |
| CCCCCC1=CC(=O)C(C/C=C(\C)CCC=C(C)C)=C(O)C1=O [VCE-003, reference compound] |  |  |  |  |  |  |  | recovery after treatment with cysteamine (thiol-trapping reactivity) [1]: undetectable in the residue; activation of the Nrf2 pathway (Nrf2 pathway): activated the Nrf2 pathway; induction of reactive oxygen species (ROS) (N2a cells [2]): induced reactive oxygen species (ROS); cell viability / cytotoxic activity (N2a cells [3]): clear cytotoxic activity at the highest concentrations tested |
| C=C(C)[C@@H]1CCC(C)=C[C@H]1C1=C(O)C(=O)C(CCCCC)=CC1=O [CBD-hydroxy-quinone] |  |  |  |  |  |  |  | activation of the Keap1/Nrf2 pathway (Keap1/Nrf2 pathway): activates the Keap1/Nrf2 pathway |
| O=C(Nc1ccncc1)c1cc([N+](=O)[O-])ccc1Cl [T0070907, reference compound] | Neither VCE-003.2 nor T0070907 alone influenced the behavior of the animals | 1.45 ± 0.82 2expΔΔct | 1.57 ± 0.51 2expΔΔct | 1.54 ± 0.75 2expΔΔct | 115.82 ± 11.23 | 97.61 ± 27.44% | 92.18 ± 4.1% |  |
| O=C(O)CC[N+](=O)[O-] [3NP, 3-nitropropionic acid, reference compound] | high scores in hindlimb clasping, locomotor activity, hindlimb dystonia and kyphosis | 4.69 ± 0.09^* 2expΔΔct | 4.28 ± 0.08^* 2expΔΔct | 5.19 ± 0.327^** 2expΔΔct | 67.16 ± 5.06 | 56.56 ± 1.05^** % | 58.85 ± 2.17^*** % | number of neurons in the striatum (Nissl, NeuN), substance alone ([4]; mice given the substance alone): reduced the number of neurons in the striatum |

Reference: article PMC4949444 (Scientific Reports, 2016)
